The record followed here is patent publication US20240059703A1 (AMGEN INC., priority 2021, published 2024).

Assay [1] relates to MIA PaCa-2 (human pancreatic carcinoma) cells. In words: Cell Viability Assay (CellTiter-Glo), MIA PaCa-2. The format is cell-based. How it is done: Serially-diluted compound or DMSO was added to the cells, and plates were incubated at 37° C., 5% CO2 for 72 h. Cell viability was measured using a CellTiter-Glo® Luminescent Cell Viability Assay kit (Promega) according to the manufacturer's protocol. The luminescence signal of treated samples was normalized to DMSO control, and data were analyzed using a 4-parameter logistic model to calculate IC50 values.

The target in a further assay is KRAS G12C (Homo sapiens (Human), UniProt P01116, C118A/G12C). In words: 2 h coupled exchange assay. Type of assay: biochemical. To be noted: Avg 2 h Coupled exchange IC50, 2 h compound pre-incubation. The method, then:
The term “2 h coupled exchange assay” or “20 h coupled exchange assay” as used herein refers to the assay described in the Section entitled “BIOLOGICAL EVALUATION.”

Assay [2] has as its system A549 (human lung carcinoma) cells. Put plainly: Cell Viability Assay (CellTiter-Glo), A549. The format is cell-based. The method in brief: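 After a 72 h exposure to serial compound dilutions at 37° C, luminescent ATP content was measured with CellTiter-Glo. The cells were A549 or MIA PaCa-2, seeded at 1.67E+04 cells/mL in RPMI 1640 with 10% serum. Signals were normalized to DMSO controls and IC50 fitted with a 4-parameter logistic model.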

Setting [3] is: SOS-mediated nucleotide exchange.

Chain of KRAS G12C (P01116 other isoform, or with tags, fused parts or gaps G12C/C118A): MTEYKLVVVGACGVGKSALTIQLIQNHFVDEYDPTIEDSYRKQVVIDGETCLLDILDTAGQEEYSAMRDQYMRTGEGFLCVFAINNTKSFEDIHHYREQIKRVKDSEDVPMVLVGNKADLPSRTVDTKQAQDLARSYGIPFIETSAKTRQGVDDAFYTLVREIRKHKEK

On to `C=CC(=O)N1CC2(CCN(c3nc4c(c(-c5ccccc5C)c3C#N)CC[C@H](c3scnc3C)C4)C2)C1` (single isomer, unassigned) [Example 23-4], for which the IC50 in assay [1] (72 h) amounted to 184 nM; on KRAS G12C, 19 nM; in assay [2] (Homo sapiens, A549, 72 h) it was 11000 nM.
In the case of `C=CC(=O)N1CC2(CCN(c3nc4c(c(-c5ccccc5C)c3C#N)CC[C@@H](c3scnc3C)C4)C2)C1` (single isomer, unassigned) [Example 23-5], the values for the IC50 (in assay [1] (72 h); at KRAS G12C; in assay [2] (72 h)) were 107 nM, 8 nM and 3800 nM, respectively.
For `C=CC(=O)N1CC2(CCN(c3nc4c(c(-c5ccccc5C)c3C#N)CC[C@H](c3scnc3C)C4)C2)C1` (single isomer, unassigned) [Example 23-6], the IC50 came to 3420 nM in assay [1] (72 h), 128 nM against KRAS G12C and 13000 nM in assay [2] (72 h).
For `C=CC(=O)N1CC2(CCN(c3nc4c(c(-c5ccccc5C)c3C#N)CCC(c3scnc3C)=C4)C2)C1` (single isomer, unassigned) [Example 23-23, (M)-4-(2-methylphenyl)-7-(4-methyl-1,3-thiazol-5-yl)-2-(2-(2-propenoyl)-2,6-diazaspiro[3.4]octan-6-yl)-5,6-dihydro-3-quinolinecarbonitrile], the IC50 in assay [1] (Homo sapiens, MIA PaCa-2, 72 h) came out at 1080 nM; on KRAS G12C it was 92 nM; in assay [2] (Homo sapiens, A549, 72 h), 3370 nM.
`C=CC(=O)N1CC2(CCN(c3nc4c(c(-c5ccccc5C)c3C#N)CCC(c3scnc3C)=C4)C2)C1` (single isomer, unassigned) [Example 23-24, (P)-4-(2-methylphenyl)-7-(4-methyl-1,3-thiazol-5-yl)-2-(2-(2-propenoyl)-2,6-diazaspiro[3.4]octan-6-yl)-5,6-dihydro-3-quinolinecarbonitrile]: the IC50 in assay [1] (72 h) is 705 nM; against KRAS G12C, 71 nM; in assay [2] (72 h), greater than 5000 nM.
Take `C=CC(=O)N1CC2(CCN(c3nc4c(c(-c5ncccc5C)c3C#N)CCC(c3scnc3C)=C4)C2)C1` (single isomer, unassigned) [Example 23-25, (P)-4-(3-methyl-2-pyridinyl)-7-(4-methyl-1,3-thiazol-5-yl)-2-(2-(2-propenoyl)-2,6-diazaspiro[3.4]octan-6-yl)-5,6-dihydro-3-quinolinecarbonitrile]: the results for the IC50 (in assay [1] (72 h); against KRAS G12C; in assay [2] (72 h)) were 480 nM, 196 nM and greater than 5000 nM, respectively.
Consider `C=CC(=O)N1CC2(CCN(c3nc4c(c(-c5ncccc5C)c3C#N)CCC(c3scnc3C)=C4)C2)C1` (single isomer, unassigned) [Example 23-26, (M)-4-(3-methyl-2-pyridinyl)-7-(4-methyl-1,3-thiazol-5-yl)-2-(2-(2-propenoyl)-2,6-diazaspiro[3.4]octan-6-yl)-5,6-dihydro-3-quinolinecarbonitrile], for which the values for the half-maximal inhibitory concentration (IC50) (in assay [1] (72 h); against KRAS G12C; in assay [2] (72 h)) were 1690 nM, 551 nM and 13000 nM, respectively.
For the molecule `C=CC(=O)N1CC2(CCN(c3nc4c(c(-c5ccccc5Cl)c3C#N)CCC(c3scnc3C)=C4)C2)C1` (single isomer, unassigned) [Example 23-41, (M)-4-(2-chlorophenyl)-7-(4-methyl-1,3-thiazol-5-yl)-2-(2-(2-propenoyl)-2,6-diazaspiro[3.4]octan-6-yl)-5,6-dihydro-3-quinolinecarbonitrile], the IC50 in assay [1] (72 h) was 2390 nM; at KRAS G12C it was 325 nM; in assay [2] (Homo sapiens, A549, 72 h) it was 5770 nM.
Consider `C=CC(=O)N1CC2(CCN(c3nc4c(c(-c5ccccc5Cl)c3C#N)CCC(c3scnc3C)=C4)C2)C1` (single isomer, unassigned) [Example 23-42, (P)-4-(2-chlorophenyl)-7-(4-methyl-1,3-thiazol-5-yl)-2-(2-(2-propenoyl)-2,6-diazaspiro[3.4]octan-6-yl)-5,6-dihydro-3-quinolinecarbonitrile], for which the IC50 in assay [1] (72 h) is 561 nM; against KRAS G12C, 66 nM; in assay [2] (72 h), greater than 5000 nM.
Take `C=CC(=O)N1CC2(CCN(c3nc4c(c(-c5c(O)cccc5F)c3C#N)CCC(c3scnc3C)=C4)C2)C1` (single isomer, unassigned) [Example 23-50, (P)-4-(2-fluoro-6-hydroxyphenyl)-7-(4-methyl-1,3-thiazol-5-yl)-2-(2-(2-propenoyl)-2,6-diazaspiro[3.4]octan-6-yl)-5,6-dihydro-3-quinolinecarbonitrile]: the IC50 is 1190 nM in assay [1] (72 h); 38 nM at KRAS G12C; greater than 5000 nM in assay [2] (Homo sapiens, A549, 72 h).
For the molecule `C=CC(=O)N1CC2(CCN(c3nc4c(c(-c5c(O)cccc5F)c3C#N)CCC(c3scnc3C)=C4)C2)C1` (single isomer, unassigned) [Example 23-51, (M)-4-(2-fluoro-6-hydroxyphenyl)-7-(4-methyl-1,3-thiazol-5-yl)-2-(2-(2-propenoyl)-2,6-diazaspiro[3.4]octan-6-yl)-5,6-dihydro-3-quinolinecarbonitrile], the values for the concentration for half-maximal inhibition (IC50) (in assay [1] (72 h); against KRAS G12C; in assay [2] (72 h)) were 6220 nM, 127000 nM and 9640 nM, respectively.
As for `C=CC(=O)N1CC2(CCN(c3nc4c(c(-c5c(C)ccc6[nH]ncc56)c3C#N)CCC(C)(C)C4)[C@@H]2CF)C1` (stereo in doubt) [Example 13-79, (M)-2-((5R)-5-(fluoromethyl)-2-(2-propenoyl)-2,6-diazaspiro[3.4]octan-6-yl)-7,7-dimethyl-4-(5-methyl-1H-indaazol-4-yl)-5,6,7,8-tetrahydro-3-quinolinecarbonitrile and (P)-((5S)-5-(fluoromethyl)-2-(2-propenoyl)-2,6-diazaspiro[3.4]octan-6-yl)-7,7-dimethyl-4-(5-methyl-1H-indazol-4-yl)-5,6,7,8-tetrahydro-3-quinolinecarbonitrile], the IC50 in assay [1] (Homo sapiens, MIA PaCa-2, 72 h) is 8240 nM; on KRAS G12C (setting [3]), 433 nM; in assay [2] (Homo sapiens, A549, 72 h) it was 7450 nM.
Turning to `C=CC(=O)N1CC2(CCN(c3nc4c(c(-c5c(C)ccc6[nH]ncc56)c3C#N)CCC(C)(C)C4)[C@H]2CF)C1` (stereo in doubt) [Example 13-80, (M)-2-((5S)-5-(fluoromethyl)-2-(2-propenoyl)-2,6-diazaspiro[3.4]octan-6-yl)-7,7-dimethyl-4-(5-methyl-1H-indazol-4-yl)-5,6,7,8-tetrahydro-3-quinolinecarbonitrile and (P)-2-((5R)-5-(fluoromethyl)-2-(2-propenoyl)-2,6-diazaspiro[3.4]octan-6-yl)-7,7-dimethyl-4-(5-methyl-1H-indazol-4-yl)-5,6,7,8-tetrahydro-3-quinolinecarbonitrile], the IC50 was 952 nM in assay [1] (Homo sapiens, MIA PaCa-2, 72 h); 45 nM against KRAS G12C (setting [3]); greater than 5000 nM in assay [2] (Homo sapiens, A549, 72 h).
For the molecule `C=CC(=O)N1CC2(CCN(c3nc4c(c(-c5cc(O)ccc5C)c3C#N)[C@H]3CC[C@@H]4C3)C2)C1` (stereo in doubt) [Example 14-9, (1R,8S)-6-(5-hydroxy-2-methylphenyl)-4-(2-(2-propenoyl)-2,6-diazaspiro[3.4]octan-6-yl)-3-azatricyclo[6.2.1.0^2,7]undeca-2,4,6-triene-5-carbonitrile], the IC50 in assay [1] (Homo sapiens, MIA PaCa-2, 72 h) was found to be 569 nM; against KRAS G12C (setting [3]), 91 nM; in assay [2] (Homo sapiens, A549, 72 h), 10400 nM.
`C=CC(=O)N1CC2(CCN(c3nc4c(c(-c5cc(O)cc6ccccc56)n3)CCCC4)C2)C1` [Example 1-1, 1-(6-(4-(3-hydroxynaphthalen-1-yl)-5,6,7,8-tetrahydroquinazolin-2-yl)-2,6-diazaspiro[3.4]octan-2-yl)prop-2-en-1-one]: the IC50 is greater than 5000 nM in assay [1] (Homo sapiens, MIA PaCa-2, 72 h); 431 nM on KRAS G12C (setting [3]); greater than 5000 nM in assay [2] (Homo sapiens, A549, 72 h).
